Structures can show the parent of a compound that is named as a salt.
Columns and labels:
[1] = molecular target: T1, glycine transporter-2 (GlyT-2) (Homo sapiens, UniProt Q9Y345); experiment: [14C]glycine uptake assay in HEK-GlyT-2 transfected cells; format: cell-based; settings: HEK-GlyT-2 cells
T1 construct: expressed in transfected cells
T1 sequence (Q9Y345 1-797): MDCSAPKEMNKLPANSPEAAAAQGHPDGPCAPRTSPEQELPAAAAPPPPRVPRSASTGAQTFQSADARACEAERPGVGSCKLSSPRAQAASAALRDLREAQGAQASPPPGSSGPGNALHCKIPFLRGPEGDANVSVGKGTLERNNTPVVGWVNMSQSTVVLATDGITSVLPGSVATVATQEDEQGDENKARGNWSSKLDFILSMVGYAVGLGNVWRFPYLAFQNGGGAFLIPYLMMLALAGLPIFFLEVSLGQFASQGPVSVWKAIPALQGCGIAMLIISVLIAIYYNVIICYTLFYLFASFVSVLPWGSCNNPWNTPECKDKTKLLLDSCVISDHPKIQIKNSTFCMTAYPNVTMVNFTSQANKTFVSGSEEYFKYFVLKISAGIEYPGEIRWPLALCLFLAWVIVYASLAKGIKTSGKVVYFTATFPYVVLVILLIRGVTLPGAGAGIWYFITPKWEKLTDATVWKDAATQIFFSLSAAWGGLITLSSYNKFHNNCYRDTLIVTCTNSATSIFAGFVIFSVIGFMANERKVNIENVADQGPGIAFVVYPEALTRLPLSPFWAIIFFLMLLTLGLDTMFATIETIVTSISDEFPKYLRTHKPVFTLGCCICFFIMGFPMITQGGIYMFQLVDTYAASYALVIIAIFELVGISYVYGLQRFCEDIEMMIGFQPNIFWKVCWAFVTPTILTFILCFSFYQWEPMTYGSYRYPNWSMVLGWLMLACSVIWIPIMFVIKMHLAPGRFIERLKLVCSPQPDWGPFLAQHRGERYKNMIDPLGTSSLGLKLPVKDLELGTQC

[2] = molecular target: T2, glycine transporter-1 (GlyT-1) (Homo sapiens, UniProt P48067); experiment: [14C]glycine uptake assay in JAR cells endogenously expressing GlyT-1 (scintillation proximity); format: cell-based; settings: JAR cells, [14C]glycine 5 μM, 3 hour incubation; read-out: GlyT-1 IC50
T2 construct: JAR cells (ATCC#HTB-144), which endogenously express GlyT-1; host or cells: JAR human choriocarcinoma cells
T2 sequence (P48067 1-706): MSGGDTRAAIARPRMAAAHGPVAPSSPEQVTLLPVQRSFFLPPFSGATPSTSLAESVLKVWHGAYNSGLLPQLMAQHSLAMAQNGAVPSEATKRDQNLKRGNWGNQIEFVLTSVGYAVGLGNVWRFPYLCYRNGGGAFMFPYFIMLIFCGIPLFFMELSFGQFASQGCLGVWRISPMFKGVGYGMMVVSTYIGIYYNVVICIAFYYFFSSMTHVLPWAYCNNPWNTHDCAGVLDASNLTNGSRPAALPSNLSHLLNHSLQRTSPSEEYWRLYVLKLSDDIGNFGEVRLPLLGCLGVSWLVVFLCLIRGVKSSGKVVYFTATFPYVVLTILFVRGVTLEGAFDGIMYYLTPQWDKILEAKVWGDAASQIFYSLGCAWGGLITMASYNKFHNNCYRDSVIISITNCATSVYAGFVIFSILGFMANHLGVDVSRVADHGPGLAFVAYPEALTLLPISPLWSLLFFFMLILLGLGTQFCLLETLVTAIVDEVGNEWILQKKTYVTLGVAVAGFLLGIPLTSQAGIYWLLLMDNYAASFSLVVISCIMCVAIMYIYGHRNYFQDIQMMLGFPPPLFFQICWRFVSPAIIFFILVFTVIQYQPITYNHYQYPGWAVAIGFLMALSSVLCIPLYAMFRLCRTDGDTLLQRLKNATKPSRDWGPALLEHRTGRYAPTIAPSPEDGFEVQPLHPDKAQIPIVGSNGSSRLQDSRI
In short: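 IC50 comes from a four-parameter fit of nine-point, duplicate curves measuring inhibition of 5 μM [14C]glycine uptake, read by scintillation proximity after 3 h at 37 °C. Cells are human JAR, which express GlyT-1 endogenously, given 10 min compound pre-treatment in pH 7.4 buffer with 5 mM alanine and 0.75% DMSO.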

Row | SMILES | IC50 [1] [nM] | IC50 [2] [nM]
1 | CCCS(=O)(=O)N1CCN(C2(CNC(=O)c3c(Cl)cc(C(F)(F)F)cc3C(F)(F)F)CCC(F)(F)CC2)CC1 [compound 254, 2-Chloro-N-((4,4-difluoro-1-(4-(propylsulfonyl)piperazin-1-yl)cyclohexyl)methyl)-4,6-bis(trifluoromethyl) benzamide Hydrochloride] | > 75000 | 7
2 | CCCS(=O)(=O)N1CCN(C2(CNC(=O)c3ccc(C(F)(F)F)cc3Cl)CCC(F)(F)CC2)CC1C (stereo not shown) [compound 256, 2-Chloro-N-((4,4-difluoro-1-(3-methyl-4-(propylsulfonyl)piperazin-1-yl)cyclohexyl)methyl)-4-(trifluoromethyl) benzamide Hydrochloride] | > 75000 | 133
3 | CCCS(=O)(=O)N1CCN(C2(CNC(=O)c3ccc(C(F)(F)F)cc3Cl)CCC(F)(F)CC2)C(C)C1 (stereo not shown) [compound 257, 2-Chloro-N-((4,4-difluoro-1-(2-methyl-4-(propylsulfonyl)piperazin-1-yl)cyclohexyl)methyl)-4-(trifluoromethyl) benzamide Hydrochloride] | > 75000 | 18
4 | CCCS(=O)(=O)N1CCN(C2(CNC(=O)c3c(Cl)cc(C(F)(F)F)cc3Cl)CCC(F)(F)CC2)CC1 [compound 258, 2,6-Dichloro-N-((4,4-difluoro-1-(4-(propylsulfonyl)piperazin-1-yl)cyclohexyl)methyl)-4-(trifluoromethyl) benzamide Hydrochloride] | > 75000 | 9
5 | CCCS(=O)(=O)N1CCN(C2(CNC(=O)c3c(F)cc(Cl)cc3F)CCC(F)(F)CC2)CC1 [compound 259, 4-Chloro-N-((4,4-difluoro-1-(4-(propylsulfonyl)piperazin-1-yl)cyclohexyl)methyl)-2,6-difluorobenzamide Hydrochloride] | > 75000 | 25
6 | CCCS(=O)(=O)N1CCN(C2(CNC(=O)c3c(Cl)cc(Cl)cc3Cl)CCC(F)(F)CC2)CC1 [compound 260, 2,4,6-Trichloro-N-((4,4-difluoro-1-(4-(propylsulfonyl)piperazin-1-yl)cyclohexyl)methyl) benzamide Hydrochloride] | > 75000 | 17

The next lines start with the values.

Row | IC50 [1] [nM] | IC50 [2] [nM] | SMILES
7 | > 75000 | 4 | Cn1cc(S(=O)(=O)N2CCN(C3(CNC(=O)c4c(F)cc(F)cc4F)CCC(F)(F)CC3)CC2)nn1 [compound 234, N-((4,4-Difluoro-1-(4-(1-methyl-1H-1,2,3-triazol-4-ylsulfonyl)piperazin-1-yl)cyclohexyl)methyl)-2,4,6-trifluorobenzamide Hydrochloride]
8 | > 75000 | 3 | Cn1cc(S(=O)(=O)N2CCN(C3(CNC(=O)c4cc(F)c(F)cc4Cl)CCC(F)(F)CC3)CC2)nn1 [compound 235, 2-Chloro-N-((4,4-difluoro-1-(4-(1-methyl-1H-1,2,3-triazol-4-ylsulfonyl)piperazin-1-yl)cyclohexyl)methyl)-4,5-difluorobenzamide Hydrochloride]
9 | > 75000 | 41 | O=C(NCC1(N2CCN(S(=O)(=O)c3cn(C(F)F)nn3)CC2)CCC(F)(F)CC1)c1ccc(C(F)(F)F)cc1Cl [compound 236, 2-Chloro-N-((1-(4-(1-(difluoromethyl)-1H-1,2,3-triazol-4-ylsulfonyl)piperazin-1-yl)-4,4-difluorocyclohexyl)methyl)-4-(trifluoromethyl) benzamide Hydrochloride]
10 | > 75000 | 18 | CCCS(=O)(=O)N1CCN(C2(CNC(=O)c3ccc(Cl)cc3C(F)(F)F)CCC(F)(F)CC2)CC1 [compound 245, 4-Chloro-N-((4,4-difluoro-1-(4-(propylsulfonyl)piperazin-1-yl)cyclohexyl)methyl)-2-(trifluoromethyl)benzamide Hydrochloride]
11 | > 75000 | 21 | CCCS(=O)(=O)N1CCN(C2(CNC(=O)c3ccc(Cl)cc3C3CC3)CCC(F)(F)CC2)CC1 [compound 253, 4-Chloro-2-cyclopropyl-N-((4,4-difluoro-1-(4-(propylsulfonyl)piperazin-1-yl)cyclohexyl)methyl) benzamide Hydrochloride]

From patent US9045445B2, “Glycine transporter-1 inhibitors, methods of making them, and uses thereof” (Albany Molecular Research, Inc., priority 2010, dated 2015)
